Structures are written as SMILES.

Results on three compounds are retold here after ChEMBL document CHEMBL2021798, “Discovery of new quinoline ether inhibitors with high affinity and selectivity for PDGFR tyrosine kinases” (Bioorg Med Chem Lett, 2012).

For data set [1], the system named is Rattus norvegicus. Nature of the data set: Volume of distribution at steady state in rat at 20 mg/kg, po. The class given is ADME, organism-based. Set-up: dose 20 mg/kg, route oral. The settings on record: in vivo.
The nature of data set [2]: Terminal half life in rat at 20 mg/kg, iv. It is filed as ADME, organism-based. Further details: dose 20 mg/kg, route intravenous. The settings on record: in vivo, read-out: beta t1/2 (converted).
Data set [3] is described as follows: Clearance in dog at 20 mg/kg, po. The class given is ADME, organism-based, Canis lupus familiaris. The settings on record: in vivo. Further details: dose 20 mg/kg, route oral.
Data set [4] relates to Canis familiaris. Nature of the data set: Volume of distribution at steady state in dog at 20 mg/kg, po. The class given is ADME, organism-based, Canis lupus familiaris. Further details: dose 20 mg/kg, route oral. The conditions noted are these: in vivo.
A short description of data set [5]: Terminal half life in dog at 20 mg/kg, iv. It is filed as ADME, organism-based, Canis lupus familiaris. The settings on record: in vivo, read-out: beta t1/2 (converted). Set-up: dose 20 mg/kg, route intravenous.
The nature of data set [6]: Clearance in rat at 3 mg/kg, po. The class given is ADME, organism-based. Further details: dose 3 mg/kg, route oral. The conditions noted are these: in vivo.
For data set [7], the system named is Rattus norvegicus. Nature of the data set: Volume of distribution at steady state in rat at 3 mg/kg, po. It is filed as ADME, organism-based. Set-up: dose 3 mg/kg, route oral. The settings on record: in vivo.
The nature of data set [8]: Terminal half life in rat at 3 mg/kg, iv. The conditions noted are these: in vivo, read-out: beta t1/2 (converted). Set-up: dose 3 mg/kg, route intravenous. It is filed as ADME, organism-based.
Data set [9] is described as follows: Oral bioavailability in rat at 3 mg/kg. The class given is ADME, organism-based. The conditions noted are these: in vivo.
Data set [10] in a line: Clearance in dog at 3 mg/kg, po. It is filed as ADME, organism-based, Canis lupus familiaris. Set-up: dose 3 mg/kg, route oral. The conditions noted are these: in vivo.
Data set [11] deals with Canis familiaris. Nature of the data set: Volume of distribution at steady state in dog at 3 mg/kg, po. It is filed as ADME, organism-based, Canis lupus familiaris. Set-up: dose 3 mg/kg, route oral. The conditions noted are these: in vivo.
The nature of data set [12]: Terminal half life in dog at 3 mg/kg, iv. The conditions noted are these: in vivo, read-out: beta t1/2 (converted). Set-up: dose 3 mg/kg, route intravenous. The class given is ADME, organism-based, Canis lupus familiaris.
Data set [13] in a line: Oral bioavailability in dog at 3 mg/kg. The class given is ADME, organism-based, Canis lupus familiaris. The settings on record: in vivo.
Data set [14] can be described thus: Dissociation constant, pKa of the compound. The class given is physicochemical.
A short description of data set [15]: Lipophilicity, log D of the compound. It is filed as physicochemical. The conditions noted are these: octanol/water.
The nature of data set [16]: Clearance in rat at 20 mg/kg, po. It is filed as ADME, organism-based. Set-up: dose 20 mg/kg, route oral. The settings on record: in vivo.
Data set [17] can be described thus: Oral bioavailability in rat at 20 mg/kg. The class given is ADME, organism-based. The conditions noted are these: in vivo.
A short description of data set [18]: Oral bioavailability in dog at 20 mg/kg. The class given is ADME, organism-based, Canis lupus familiaris. The conditions noted are these: in vivo.

What is called CL/F is the apparent clearance, not corrected for the fraction that reaches the circulation. On to `COc1ccc2c(Oc3ccc(CC(=O)Nc4cn(C)nc4C)c(OC)c3)ccnc2c1`, for which the Vdss with Rattus norvegicus [1] came to 0.7 L/kg; in the data set on Canis familiaris [4] it was 1.4 L/kg. Moreover, the figures for the half-life in [2] and in data set [5] were 3.7 h and 8.6 h, respectively. For the same compound, the CL/F in [3] is 2.4 mL/min/kg.
In general, bioavailability refers to the share of a dose that reaches the circulation, judged against a reference dose that is usually intravenous. As usually defined, the pKa is the pH at which an ionisable group is half protonated. Low readings indicate a stronger acid or weaker base, high ones a weaker acid or stronger base. For orientation: logD means lipophilicity at a set pH, counting ionised and neutral species. On to `CCOc1cc2nccc(Oc3cnc(CC(=O)Nc4n[nH]c(CC)c4C)c(OC)c3)c2cc1OC`, for which the CL/F was 9 mL/min/kg in [6] and 11.5 mL/min/kg in [10]. In addition, the Vdss with Rattus norvegicus [7] is 0.7 L/kg; in the data set on Canis familiaris [11], 2 L/kg. Besides, the results for the half-life in data set [8] and in data set [12] were 1.6 h and 3.4 h, respectively. For the same compound, the bioavailability in data set [9] was 43%; in data set [13] it was 100%. In [14], the pKa was 6. The logD in data set [15] is 3.3.
`COc1ccc2c(Oc3ccc(CC(=O)Nc4cn(C)nc4C)c(OC)c3)ccnc2c1.O=S(=O)(O)O`: the apparent clearance CL/F in data set [16] was found to be 5.7 mL/min/kg; in [3] it was 2.5 mL/min/kg. In addition, the Vdss turned out to be 0.7 L/kg in the data set on Rattus norvegicus [1] and 1.8 L/kg in the data set with Canis familiaris [4]. For the same compound, the figures for the half-life in data set [2] and in data set [5] were 3.7 h and 10.6 h, respectively. Further, the bioavailability in data set [17] was 78%; in data set [18] it was 59%. The pKa in data set [14] was found to be 6.3. In addition, the logD in [15] came out at 3.5.
